Source: USRE37781E1, “Substituted cyclic carbonyls and derivatives thereof useful as retroviral protease inhibitors” (DuPont Pharmaceuticals Company, priority 1991, dated 2002)
Where two headings read alike, the source gives them in different places.

Assays:
[1] = target: single-chain tethered dimer of HIV protease (Human immunodeficiency virus 1, UniProt P04585); assay: biochemical; format: biochemical; design: fused on or other part: A second copy of the same protease unit is joined to the first by a short peptide tether, giving one polypeptide
[2] = test system: HIV-1 (RF) in MT-2 cells; assay: microbe, parasite or virus in culture; format: cell-based
Summary of the method: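 HIV-1 laboratory strains (RF, MN, IIIB) grown in H9 cells in RPMI 1640 with 5% FCS; infections in MT-2 cells. Viral RNA quantified by hybridization with biotinylated gag/pol capture probes on streptavidin plates and alkaline phosphatase-conjugated reporter probes; BH10 gag-pol in vitro transcripts serve as RNA standards.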

[3] = read-out: HPLC K1, Table 2d, HIV protease inhibition, HPLC method
[4] = Human immunodeficiency virus 1, MT2, 48 h, Table 2d, HIV RNA assay, read-out: IC90
[5] = read-out: HPLC K1, Table 2d, class symbols
[6] = Human immunodeficiency virus 1, MT2, 48 h, Table 2d, class symbols, read-out: IC90
[7] = Table 2d, class symbols, read-out: HPLC K1
[8] = Table 2d, HIV protease inhibition, HPLC method, read-out: HPLC K1
[9] = HIV protease inhibition, HPLC method, Table 2d, read-out: HPLC K1
[10] = HIV RNA assay, HIV-1 infected MT-2 cells, Table 2d

SMILES: COC(=O)c1ccc(CN2C(=O)N(Cc3ccc(C(=O)OC)cc3)C(Cc3ccc(F)c(F)c3)C(O)C(O)C2Cc2ccc(F)c(F)c2)cc1 (centres unmarked) [20Z]
- Ki ([1]; Table 2i, read-out: HPLC Ki): 10 to 1000 nM
- IC90 ([2]; Table 2i): +++ (+++=<10 μg/mL)

SMILES: O=S1(=O)N(Cc2cccc(CO)c2)C(Cc2ccccc2)C(O)C(O)C(Cc2ccccc2)N1Cc1cccc(CO)c1 (centres unmarked) [23N]
- Ki ([1]; Table 2m, read-out: HPLC Ki): < 10 nM
- IC90 ([2]; Table 2m): +++ (+++=<10 μg/mL)

SMILES: NCCCCCN1C(=O)N(CCCCCN)C(Cc2ccccc2)C(O)C(O)C1Cc1ccccc1 (centres unmarked) [15EP]
- Ki [1, 3]: > 1000 nM
- IC90 [2, 4]: > 50 µg/mL

SMILES: NCCCCCCN1C(=O)N(Cc2ccc(CO)cc2)C(Cc2ccccc2)C(O)C(O)C1Cc1ccccc1 (centres unmarked) [Example 15WD]
- Ki [1, 5]: 10 to 1000 nM
- IC90 [2, 6]: < 10 µg/mL

SMILES: CCNCc1ccc(C(=O)OCc2ccc(CN3C(=O)N(Cc4ccc(COC(=O)c5ccc(CNCC)cc5)cc4)[C@H](Cc4ccccc4)[C@H](O)[C@@H](O)[C@H]3Cc3ccccc3)cc2)cc1.Cl [29V]
- Ki ([1]; Table 2s, read-out: Ki (HPLC)): > 1000 nM
- IC90 ([2]; Table 2s): +++ (+++=<10 μg/mL)

SMILES: CCC(=O)c1cccc(CN2C(=O)N(Cc3cccc(C(=O)CC)c3)C(Cc3ccccc3)C(O)C(O)C2Cc2ccccc2)c1 (centres unmarked) [Example 15XN]
- Ki [1, 3]: < 10 nM
- IC90 [2, 4]: < 10 µg/mL

SMILES: CNC(=O)c1cccc(CN2C(=O)N(Cc3cccc(C(=O)NC)c3)C(Cc3ccccc3)C(O)C(O)C2Cc2ccccc2)c1 (centres unmarked) [11H]
- Ki [1, 5]: < 10 nM
- IC90 [2, 6]: < 10 µg/mL

SMILES: O=C1NC(Cc2ccccc2)C(O)C(O)C(Cc2ccccc2)N1CCOCCO (centres unmarked) [Example 12T]
- Ki [1, 5]: 10 to 1000 nM
- IC90 [2, 6]: > 100 µg/mL

SMILES: Cc1cncc(O)c1CN1C(=O)N(Cc2c(C)cncc2O)C(Cc2ccccc2)C(O)C(O)C1Cc1ccccc1 (centres unmarked) [Example 14K]
- Ki [1, 7]: 10 to 1000 nM
- IC90 ([2]; Table 2d, class symbols): + (+=>100 μg/mL)

SMILES: NC(=NO)c1cccc(CN2C(=O)N(Cc3cccc(C(N)=NO)c3)C(Cc3ccc(F)cc3)C(O)C(O)C2Cc2ccc(F)cc2)c1 (centres unmarked) [20X]
- Ki ([1]; read-out: HPLC Ki, Table 2i): < 10 nM
- IC90 ([2]; Human immunodeficiency virus 1, MT2, Table 2i, read-out: IC90): < 10 µg/mL

SMILES: COC(=O)c1cc(CN2C(=O)N(Cc3ccc(F)c(C(=O)OC)c3)C(Cc3ccccc3)C(O)C(O)C2Cc2ccccc2)ccc1F (centres unmarked) [15EE]
- Ki [1, 8]: < 10 nM
- IC90 ([2]; Table 2d, HIV RNA assay): + (+=>100 μg/mL)

SMILES: Cl.Cl.O=C(NCCCCCN1C(=O)N(CCCCCNC(=O)OCc2cccnc2)C(Cc2ccccc2)C(O)C(O)C1Cc1ccccc1)OCc1cccnc1 (centres unmarked) [15EU]
- Ki [1, 8]: < 10 nM
- IC90 ([2]; Table 2d, HIV RNA assay): +++ (+++=<10 μg/mL)

SMILES: O=C1N(CCCCCO)C(Cc2ccccc2)C(O)C(O)C(Cc2ccccc2)N1Cc1cccc(O)c1 (centres unmarked) [Example 15VR]
- Ki [1, 5]: < 10 nM
- IC90 [2, 6]: < 10 µg/mL

SMILES: CN(C)C(=O)c1cccc(CN2C(=O)N(Cc3cccc(C(=O)N(C)C)c3)C(Cc3ccccc3)C(O)C(O)C2Cc2ccccc2)c1 (centres unmarked) [11S]
- Ki [1, 7]: 10 to 1000 nM
- IC90 ([2]; Table 2d, class symbols): +++ (+++=<10 μg/mL)

SMILES: O=C1N(Cc2ccccc2)C(Cc2ccccc2)C(O)C(O)C(Cc2ccccc2)N1Cc1ccc2[nH]nnc2c1 (centres unmarked) [15DN]
- Ki [1, 8]: < 10 nM
- IC90 ([2]; Table 2d, HIV RNA assay): +++ (+++=<10 μg/mL)

SMILES: O=S1(=O)NC(Cc2ccccc2)C(O)C(O)C(Cc2ccccc2)N1CCCCCO (centres unmarked) [23AE]
- Ki ([1]; Table 2m, read-out: HPLC Ki): 10 to 1000 nM
- IC90 ([2]; Table 2m): ++/+ (The ++/+ is used in the cases where an IC90 was determined to be >50 μg/mL)

SMILES: O=C(NCCCCCN1C(=O)N(CCCCCNC(=O)Nc2ccccc2)C(Cc2ccccc2)C(O)C(O)C1Cc1ccccc1)Nc1ccccc1 (centres unmarked) [15ER]
- Ki [1, 8]: 10 to 1000 nM
- IC90 ([2]; Table 2d, HIV RNA assay): ++/+ (The ++/+ is used in the cases where an IC90 was determined to be >50 μg/mL)

SMILES: O=C(NCCCCCN1C(=O)N(CCCCCNC(=O)c2ccccc2F)C(Cc2ccccc2)C(O)C(O)C1Cc1ccccc1)c1ccccc1F (centres unmarked) [15FB]
- Ki [1, 9]: 10 to 1000 nM
- IC90 [2, 10]: +++ (+++=<10 μg/mL)

SMILES: NCc1ccc(CN2C(=O)N(Cc3ccc(CO)cc3)C(Cc3ccccc3)C(O)C(O)C2Cc2ccccc2)cc1 (centres unmarked) [Example 15YH]
- Ki [1, 8]: 10 to 1000 nM
- IC90 ([2]; Table 2d, HIV RNA assay): ++ (++=10 to 100 μg/mL)

SMILES: O=C(NCCCCCN1C(=O)N(CCCCCNC(=O)c2cccc(F)c2)C(Cc2ccccc2)C(O)C(O)C1Cc1ccccc1)c1cccc(F)c1 (centres unmarked) [15EY]
- Ki [1, 9]: 10 to 1000 nM
- IC90 [2, 10]: +++ (+++=<10 μg/mL)

SMILES: CCCCC(O)CN1C(=O)NC(Cc2ccccc2)C(O)C(O)C1Cc1ccccc1 (centres unmarked) [Example 15VM]
- Ki [1, 5]: > 1000 nM
- IC90 [2, 6]: > 50 µg/mL

SMILES: NC(=NO)c1cccc(CN2C(=O)N(Cc3cccc(C(N)=NO)c3)C(Cc3ccccc3)C(O)C(O)C2Cc2ccccc2)c1 (centres unmarked) [20V]
- Ki ([1]; Table 2i, read-out: HPLC Ki): < 10 nM
- IC90 ([2]; Table 2i): +++ (+++=<10 μg/mL)

SMILES: CC(=O)Oc1cccc(CN2C(=O)N(Cc3cccc(OC(C)=O)c3)C(Cc3ccccc3)C(O)C(O)C2Cc2ccccc2)c1 (centres unmarked) [10F]
- Ki [1, 5]: 10 to 1000 nM
- IC90 [2, 6]: < 10 µg/mL

SMILES: CC(=O)NCCCCCN1C(=O)N(CCCCCNC(C)=O)C(Cc2ccccc2)C(O)C(O)C1Cc1ccccc1 (centres unmarked) [15ET]
- Ki [1, 8]: 10 to 1000 nM
- IC90 ([2]; Table 2d, HIV RNA assay): ++/+ (The ++/+ is used in the cases where an IC90 was determined to be >50 μg/mL)

SMILES: O=C1N(CCCCCCCCO)C(Cc2ccccc2)C(O)C(O)C(Cc2ccccc2)N1CCCCCCCCO (centres unmarked) [Example 12K]
- Ki [1, 5]: 10 to 1000 nM
- IC90 [2, 6]: < 10 µg/mL
